Values of other authors as cited in PMC10386414 (Molecules, 2023).

Legend:
[1] = earlier work, reference not given
MOR [2] = tested on: MOR; set-up: method as in PMID 17625813; conditions: receptor binding assay
[3] = set-up: method as in PMID 37381112; conditions: depending on the animal species used and the pain stimulus
MOR [4] = tested on: MOR; set-up: method as in PMID 33479684; conditions: cAMP assay, acted as a partial agonist
[5] = set-up: method as in PMID 37381112; conditions: in vivo

SMILES	potency in vivo relative to morphine [1]	MOR affinity (MOR [2])	antinociceptive activity [3]	%Emax (efficacy) (MOR [4]) [%]	EC50 (MOR [4]; read-out: EC50 (potency)) [nM]	locomotor effects [5]
Oc1cccc(C23CCCC(C2O)N(CCc2ccccc2)CC3)c1 [1R,5R,9S-OH compound]	about 500 times	sub-nanomolar	–	–	–	–
CCC[C@H]1[C@@H]2CCC[C@@]1(c1cccc(O)c1)CCN2CCc1ccccc1 [compound 16]	–	–	some antinociceptive activity	45	1.42	unlike morphine in its locomotor effects
